Data published in patent publication US20110028566A1, “COMPOSITIONS AND PRODUCTS CONTAINING CYCLOALIPHATIC DIOL ANTIMICROBIAL AGENTS AND METHODS OF USING THE COMPOSITIONS AND PRODUCTS” (EASTMAN CHEMICAL COMPANY, priority 2009, published 2011).

How the values were obtained:
Experiment in all cases: Microbial challenge testing in BPW
Type in all cases: cell-based
Streptococcus mutans = conditions: BPW, w/v % in label, average of replicates; for Grade code, S. mutans, 3 Day: 3 days incubation; for Grade code, S. mutans, 13 Day: 13 days incubation; for Grade code, S. mutans, 30 Days: 30 days incubation
Procedure, shortened: (§1)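 Each organism, grown in TSB with 1% dextrose 96 h or more at 35 °C, was inoculated to 10^5–10^6 cfu/mL into BPW (pH 7.0, 1% dextrose) containing test materials at set w/v %. Broth-alone controls were run. Tubes were held 14 days at 35 °C, then at room temperature.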

Escherichia coli = conditions: BPW, w/v % in label, average of replicates; for Grade code, E. coli, 3 Day: 3 days incubation; for Grade code, E. coli, 14 Day: 14 days incubation; for Grade code, E. coli, 30 Day: 30 days incubation
Procedure, shortened: as §1

Burkholderia cepacia = conditions: BPW, w/v % in label, average of replicates; for Grade code, B. cepacia, 3 Days: 3 days incubation; for Grade code, B. cepacia, 14 Days: 14 days incubation; for Grade code, B. cepacia, 30 Days: 30 days incubation
Procedure, shortened: as §1

Pseudomonas aeruginosa = conditions: BPW, w/v % in label, average of replicates; for Grade code, P. aeruginosa, 3 Days: 3 days incubation; for Grade code, P. aeruginosa, 13 Days: 13 days incubation; for Grade code, P. aeruginosa, 30 Days: 30 days incubation
Procedure, shortened: as §1

[1] = tested on: Staphylococcus epidermidis; conditions: BPW, w/v % in label, average of replicates; for Grade code, S. epidermidis, 3 Days: 3 days incubation; for Grade code, S. epidermidis, 13 Days: 13 days incubation; for Grade code, S. epidermidis, 30 Days: 30 days incubation
Procedure, shortened: as §1

Staphylococcus aureus = conditions: BPW, w/v % in label, average of replicates; for Grade code, S. aureus, 3 Day: 3 days incubation; for Grade code, S. aureus, 14 Day: 14 days incubation; for Grade code, S. aureus, 30 Day: 30 days incubation
Procedure, shortened: as §1

Bacillus subtilis = conditions: BPW, w/v % in label, average of replicates; for Grade code, B. subtilis, 3 Day: 3 days incubation; for Grade code, B. subtilis, 14 Day: 14 days incubation; for Grade code, B. subtilis, 30 Days: 30 days incubation
Procedure, shortened: as §1

Aspergillus niger = conditions: BPW, w/v % in label, average of replicates; for Grade code, A. niger, 3 Day: 3 days incubation; for Grade code, A. niger, 13 Day: 13 days incubation; for Grade code, A. niger, 30 Day: 30 days incubation
Procedure, shortened: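 A. niger grown in TSB with 1% dextrose and on SDA at 22° C.±2° C; spores harvested, filtered, adjusted to 1.0×10^8 and checked by hemocytometer.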

Q: Which results are given for `CCCCCCC(O)CO` (stereo not shown) [CG, 1,2-octanediol]?
A: Grade code, S. mutans, 3 Day (Streptococcus mutans): 0 (No growth detected or <1 colony (thus <10 cfu/mL)); Grade code, S. mutans, 13 Day (Streptococcus mutans): 0 (No growth detected or <1 colony (thus <10 cfu/mL)); Grade code, S. mutans, 30 Days (Streptococcus mutans): 0 (No growth detected or <1 colony (thus <10 cfu/mL)); Grade code, E. coli, 3 Day (Escherichia coli; listed as 0.25% CG): 3 (101 to 1000 colonies (thus 1000 to 10,000 cfu/mL)); Grade code, E. coli, 3 Day (Escherichia coli; listed as 0.5% CG): 1 (1 to 51 colonies counted (thus 10 to 510 cfu/mL)); Grade code, E. coli, 14 Day (Escherichia coli; listed as 0.25% CG): 2 (52 to 100 colonies counted (thus 520 to 1000 cfu/mL)); Grade code, E. coli, 14 Day (Escherichia coli; listed as 0.5% CG): 0 (No growth detected or <1 colony (thus <10 cfu/mL)); Grade code, E. coli, 30 Day (Escherichia coli; listed as 0.25% CG): 2 (52 to 100 colonies counted (thus 520 to 1000 cfu/mL)); Grade code, E. coli, 30 Day (Escherichia coli; listed as 0.5% CG): 0 (No growth detected or <1 colony (thus <10 cfu/mL)); Grade code, B. cepacia, 3 Days (Burkholderia cepacia): 2 (52 to 100 colonies counted (thus 520 to 1000 cfu/mL)); Grade code, B. cepacia, 14 Days (Burkholderia cepacia; listed as 0.25% CG): 0.5; Grade code, B. cepacia, 14 Days (Burkholderia cepacia; listed as 0.5% CG): 0 (No growth detected or <1 colony (thus <10 cfu/mL)); Grade code, B. cepacia, 30 Days (Burkholderia cepacia; listed as 0.25% CG): 0.5; Grade code, B. cepacia, 30 Days (Burkholderia cepacia; listed as 0.5% CG): 0 (No growth detected or <1 colony (thus <10 cfu/mL)); Grade code, P. aeruginosa, 3 Days (Pseudomonas aeruginosa; listed as 0.25% CG): 2 (52 to 100 colonies counted (thus 520 to 1000 cfu/mL)); Grade code, P. aeruginosa, 3 Days (Pseudomonas aeruginosa; listed as 0.5% CG): 0 (No growth detected or <1 colony (thus <10 cfu/mL)); Grade code, P. aeruginosa, 13 Days (Pseudomonas aeruginosa; listed as 0.25% CG): 2 (52 to 100 colonies counted (thus 520 to 1000 cfu/mL)); Grade code, P. aeruginosa, 13 Days (Pseudomonas aeruginosa; listed as 0.5% CG): 0 (No growth detected or <1 colony (thus <10 cfu/mL)); Grade code, P. aeruginosa, 30 Days (Pseudomonas aeruginosa; listed as 0.25% CG): 2 (52 to 100 colonies counted (thus 520 to 1000 cfu/mL)); Grade code, P. aeruginosa, 30 Days (Pseudomonas aeruginosa; listed as 0.5% CG): 0 (No growth detected or <1 colony (thus <10 cfu/mL)); Grade code, S. epidermidis, 3 Days ([1]; listed as 0.25% CG): 4 (1001 to 10,000 colonies (thus 10,000 cfu/mL to 100,000 cfu/mL)); Grade code, S. epidermidis, 3 Days ([1]; listed as 0.5% CG): 2 (52 to 100 colonies counted (thus 520 to 1000 cfu/mL)); Grade code, S. epidermidis, 13 Days ([1]; listed as 0.25% CG): 1 (1 to 51 colonies counted (thus 10 to 510 cfu/mL)); Grade code, S. epidermidis, 13 Days ([1]; listed as 0.5% CG): 0 (No growth detected or <1 colony (thus <10 cfu/mL)); Grade code, S. epidermidis, 30 Days ([1]; listed as 0.25% CG): 1 (1 to 51 colonies counted (thus 10 to 510 cfu/mL)); Grade code, S. epidermidis, 30 Days ([1]; listed as 0.5% CG): 0 (No growth detected or <1 colony (thus <10 cfu/mL)); Grade code, S. aureus, 3 Day (Staphylococcus aureus; listed as 0.25% CG): 4 (1001 to 10,000 colonies (thus 10,000 cfu/mL to 100,000 cfu/mL)); Grade code, S. aureus, 3 Day (Staphylococcus aureus; listed as 0.5% CG): 3 (101 to 1000 colonies (thus 1000 to 10,000 cfu/mL)); Grade code, S. aureus, 14 Day (Staphylococcus aureus; listed as 0.25% CG): 2 (52 to 100 colonies counted (thus 520 to 1000 cfu/mL)); Grade code, S. aureus, 14 Day (Staphylococcus aureus; listed as 0.5% CG): 0 (No growth detected or <1 colony (thus <10 cfu/mL)); Grade code, S. aureus, 30 Day (Staphylococcus aureus; listed as 0.25% CG): 2 (52 to 100 colonies counted (thus 520 to 1000 cfu/mL)); Grade code, S. aureus, 30 Day (Staphylococcus aureus; listed as 0.5% CG): 0 (No growth detected or <1 colony (thus <10 cfu/mL)); Grade code, B. subtilis, 3 Day (Bacillus subtilis; listed as 0.25% CG): 4 (1001 to 10,000 colonies (thus 10,000 cfu/mL to 100,000 cfu/mL)); Grade code, B. subtilis, 3 Day (Bacillus subtilis; listed as 0.5% CG): 3 (101 to 1000 colonies (thus 1000 to 10,000 cfu/mL)); Grade code, B. subtilis, 14 Day (Bacillus subtilis; listed as 0.25% CG): 4 (1001 to 10,000 colonies (thus 10,000 cfu/mL to 100,000 cfu/mL)); Grade code, B. subtilis, 14 Day (Bacillus subtilis; listed as 0.5% CG): 1 (1 to 51 colonies counted (thus 10 to 510 cfu/mL)); Grade code, B. subtilis, 30 Days (Bacillus subtilis; listed as 0.25% CG): 4 (1001 to 10,000 colonies (thus 10,000 cfu/mL to 100,000 cfu/mL)); Grade code, B. subtilis, 30 Days (Bacillus subtilis; listed as 0.5% CG): 1 (1 to 51 colonies counted (thus 10 to 510 cfu/mL)); Grade code, A. niger, 3 Day (Aspergillus niger): 4; Grade code, A. niger, 13 Day (Aspergillus niger; listed as 0.25% CG): 4; Grade code, A. niger, 13 Day (Aspergillus niger; listed as 0.5% CG): 2 (Countable (11 to 100 colonies)); Grade code, A. niger, 30 Day (Aspergillus niger; listed as 0.25% CG): 4; Grade code, A. niger, 30 Day (Aspergillus niger; listed as 0.5% CG): 1 (Countable (1 to 10 colonies))

Q: How did the “Grade code, S. mutans, 3 Day” value (Streptococcus mutans) turn out when `O=C([O-])CN(CCN(CC(=O)O)CC(=O)O)CC(=O)[O-].[Na+].[Na+]` [EDTA, ethylenediaminetetraacetic acid disodium salt] was run?
A: Its value is 4 (1001 to 10,000 colonies (thus 10,000 cfu/mL to 100,000 cfu/mL)).

Q: And the “Grade code, S. mutans, 13 Day” value (Streptococcus mutans)?
A: Its value is 4 (1001 to 10,000 colonies (thus 10,000 cfu/mL to 100,000 cfu/mL)).

Q: And the “Grade code, S. mutans, 30 Days” value (Streptococcus mutans)?
A: Its value is 4 (1001 to 10,000 colonies (thus 10,000 cfu/mL to 100,000 cfu/mL)).

Q: What about the “Grade code, E. coli, 3 Day” value (Escherichia coli) of the same compound?
A: The value was 5 (More than 10,000 colonies estimated (thus >100,000 cfu/mL)).

Q: And the “Grade code, E. coli, 14 Day” value (Escherichia coli)?
A: The value was 5 (More than 10,000 colonies estimated (thus >100,000 cfu/mL)).

Q: What about the “Grade code, E. coli, 30 Day” value (Escherichia coli) of the same compound?
A: The value was 5 (More than 10,000 colonies estimated (thus >100,000 cfu/mL)).

Q: What about the “Grade code, B. cepacia, 3 Days” value (Burkholderia cepacia) of the same compound?
A: Its value is 4 (1001 to 10,000 colonies (thus 10,000 cfu/mL to 100,000 cfu/mL)).

Q: What about the “Grade code, B. cepacia, 14 Days” value (Burkholderia cepacia) of the same compound?
A: Its value is 4 (1001 to 10,000 colonies (thus 10,000 cfu/mL to 100,000 cfu/mL)).

Q: And the “Grade code, B. cepacia, 30 Days” value (Burkholderia cepacia)?
A: The value was 4 (1001 to 10,000 colonies (thus 10,000 cfu/mL to 100,000 cfu/mL)).

Q: What about the “Grade code, P. aeruginosa, 3 Days” value (Pseudomonas aeruginosa) of the same compound?
A: The value was 4 (1001 to 10,000 colonies (thus 10,000 cfu/mL to 100,000 cfu/mL)).

Q: What about the “Grade code, P. aeruginosa, 13 Days” value (Pseudomonas aeruginosa) of the same compound?
A: Its value is 4 (1001 to 10,000 colonies (thus 10,000 cfu/mL to 100,000 cfu/mL)).

Q: And the “Grade code, P. aeruginosa, 30 Days” value (Pseudomonas aeruginosa)?
A: Its value is 5 (More than 10,000 colonies estimated (thus >100,000 cfu/mL)).

Q: And the “Grade code, S. epidermidis, 3 Days” value [1]?
A: The value was 4 (1001 to 10,000 colonies (thus 10,000 cfu/mL to 100,000 cfu/mL)).

Q: What about the “Grade code, S. epidermidis, 13 Days” value [1] of the same compound?
A: The value was 3 (101 to 1000 colonies (thus 1000 to 10,000 cfu/mL)).

Q: What about the “Grade code, S. epidermidis, 30 Days” value [1] of the same compound?
A: Its value is 4 (1001 to 10,000 colonies (thus 10,000 cfu/mL to 100,000 cfu/mL)).

Q: What about the “Grade code, S. aureus, 3 Day” value (Staphylococcus aureus) of the same compound?
A: Its value is 5 (More than 10,000 colonies estimated (thus >100,000 cfu/mL)).

Q: And the “Grade code, S. aureus, 14 Day” value (Staphylococcus aureus)?
A: Its value is 4 (1001 to 10,000 colonies (thus 10,000 cfu/mL to 100,000 cfu/mL)).

Q: And the “Grade code, S. aureus, 30 Day” value (Staphylococcus aureus)?
A: The value was 4 (1001 to 10,000 colonies (thus 10,000 cfu/mL to 100,000 cfu/mL)).

Q: And the “Grade code, B. subtilis, 3 Day” value (Bacillus subtilis)?
A: Its value is 4 (1001 to 10,000 colonies (thus 10,000 cfu/mL to 100,000 cfu/mL)).

Q: And the “Grade code, B. subtilis, 14 Day” value (Bacillus subtilis)?
A: Its value is 4 (1001 to 10,000 colonies (thus 10,000 cfu/mL to 100,000 cfu/mL)).

Q: What about the “Grade code, B. subtilis, 30 Days” value (Bacillus subtilis) of the same compound?
A: Its value is 4 (1001 to 10,000 colonies (thus 10,000 cfu/mL to 100,000 cfu/mL)).

Q: What about the “Grade code, A. niger, 3 Day” value (Aspergillus niger) of the same compound?
A: Its value is 4.

Q: What about the “Grade code, A. niger, 13 Day” value (Aspergillus niger) of the same compound?
A: Its value is 4.

Q: And the “Grade code, A. niger, 30 Day” value (Aspergillus niger)?
A: Its value is 4.
